We go through nine compounds from patent US10450260B2, “NO- and H2S-releasing compounds” (RESEARCH FOUNDATION OF THE CITY UNIVERSITY OF NEW YORK, priority 2011, dated 2019).

For assay [1], the system named is HT-29 human colon cancer cells. Put plainly: MTT cell growth inhibition, HT-29. To be noted: for IC50: Homo sapiens; for Ratio NSAID/NOSH-NSAID, HT-29: fold-enhancement in potency over the parent compound. The format is cell-based. On the procedure: HT-29, SW-480 and HCT-15 human colon adenocarcinoma, MIA PaCa-2 and BxPC-3 human pancreatic cancer, LNCAP human prostate cancer, A549 human lung cancer, MCF-7 (estrogen receptor positive), MDA-MB 231 and SK-BR-3 (estrogen receptor negative) human breast cancer, and Jurkats human leukemia cell lines were obtained from American Type Tissue Collection (Manassas, Va.). All cells lines were grown as monolayers except for the Jurkats which were grown in suspension. The pancreatic and breast cancer cells were grown in Dulbecco's modified Eagle's medium, the prostate, Jurkat, SW-480 and HCT-15 colon cells were grown in RPMI 1640 medium, the lung cells were grown in F-12 and the colon HT-29 cells were grown in McCoy 5A. All media were supplemented with 10% fetal calf serum (Invitrogen, Carlsbad, Calif.) penicillin (50 U/ml), and streptomycin (50 μg/ml) (Invitrogen, Carlsbad, Calif.). Cells were seeded on culture dishes at a density of 25×10^3 cells/cm^2 and incubated at 37° C. in 5% CO2 and 90% relative humidity. Single cell suspensions were obtained by trypsinization (0.05% trypsin/EDTA), and cells were counted using a hemocytometer. Viability was determined by the trypan blue dye exclusion method.
Cell growth inhibitory effect of NOSH compounds were measured using a colorimetric MTT assay kit (Roche, Indianapolis, Ind.). Cancer cells were plated in 96-well plates at a density of 50,000 cells/well. The cells were incubated for 24 h with different concentrations of NOSH compounds. After the indicated time, 10 μl of MTT dye (3-[4,5-dimethylthiazol-2-yl]-2,5-diphenyl tetrazolium bromide, 5 mg/ml in phosphate buffered saline), was added to each well, and the plates were incubated for 2 hours at 37° C. Then, the media was aspirated, and add 100 μl of the solubilization solution (10% SDS in 0.01 M HCl) was added to each well to solubilize the formant crystals. The absorbance of the plates was measured on an ELISA reader at a wavelength of 570 nm. Each sample was performed in triplicate, and the entire experiment was repeated three times.
HT-29 human colon cancer cells were obtained from American Type Tissue Collection (Manassas, Va.) and grown as monolayer in McCoy 5A media that was supplemented with 10% fetal calf serum (Invitrogen, Carlsbad, Ca.), penicillin (50 U/ml), and streptomycin (50 μg/ml) (Invitrogen, Carlsbad, Calif.).
Growth inhibition was measured using a colorimetric MTT assay kit (Roche, Indianapolis, Ind.). Proliferation (PCNA) was assessed using an ELISA kit from Calbiochem, (La Jolla, Calif.). Cell cycle phase distributions and apoptosis of control and treated cells were determined as previously described. All methods are described in Chattopadhyay et al., Biochemical Pharmacology, 2012, 83(6), 715-722.
HT-29, SW-480 and HCT-15 human colon adenocarcinoma, MIA PaCa-2 and BxPC-3 human pancreatic cancer, LNCAP human prostate cancer, A549 and H383 human lung cancer, MCF-7, MDA-MB 231 and SK-BR-3 human breast cancer and Jurkat T cell human leukemia cell lines were obtained from American Type Tissue Collection (Manassas, Va.) All cells lines were grown as monolayers except for the Jurkat T cells which were grown as suspension culture. The pancreatic and breast cancer cells were grown in Dulbecco's modified Eagle's medium, the prostate, Jurkat, SW-480 and HCT-15 colon cells were grown in RPMI 1640 medium, the lung cells were grown in F-12 and the colon HT-29 cells were grown in McCoy 5A. All media were supplemented with 10% fetal calf serum (Invitrogen, Carlsbad, Calif.) penicillin (50 U/ml), and streptomycin (50 μg/ml) (Invitrogen, Carlsbad, Calif.). Cells were seeded on culture dishes at a density of 25×10^3 cells/cm^2 and incubated at 37° C. in 5% CO2 and 90% relative humidity. Single cell suspensions were obtained by trypsinization (0.05% trypsin/EDTA), and cells were counted using a hemacytometer. The final DMSO concentration was adjusted in all media to 1%. Viability was determined by the trypan blue dye exclusion method. […]

The next assay concerns the target T1, ovine COX-1 (Ovis aries, UniProt P05979).
T1 construct: purchased Cayman Chemicals (Ann Arbor, Mich.)
T1 sequence (P05979 25-600): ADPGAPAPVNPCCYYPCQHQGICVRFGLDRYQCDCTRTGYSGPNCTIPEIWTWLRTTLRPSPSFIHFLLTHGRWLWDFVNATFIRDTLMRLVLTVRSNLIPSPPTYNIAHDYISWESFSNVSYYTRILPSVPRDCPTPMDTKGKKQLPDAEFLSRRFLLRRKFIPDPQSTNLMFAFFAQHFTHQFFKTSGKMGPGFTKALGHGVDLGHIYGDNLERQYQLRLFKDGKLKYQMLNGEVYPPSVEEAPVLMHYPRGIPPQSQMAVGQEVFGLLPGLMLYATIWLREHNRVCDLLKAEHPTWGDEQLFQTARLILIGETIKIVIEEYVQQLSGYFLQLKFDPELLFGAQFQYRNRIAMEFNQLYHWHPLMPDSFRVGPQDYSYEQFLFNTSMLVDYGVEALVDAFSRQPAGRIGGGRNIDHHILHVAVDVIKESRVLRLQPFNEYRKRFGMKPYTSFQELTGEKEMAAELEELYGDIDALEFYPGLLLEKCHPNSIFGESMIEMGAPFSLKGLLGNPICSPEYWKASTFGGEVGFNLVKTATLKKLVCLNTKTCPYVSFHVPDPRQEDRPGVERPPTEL
Put plainly: COX-1 enzyme activity, colorimetric inhibitor screening kit. The format is biochemical. To be noted: for preference between COX-1 and COX-2 enzyme inhibition: ovine COX-1 vs COX-2.

The mark [2] stands for this setting: HT-29, 24 hours, read-out: IC50 for cell growth inhibition, Colon HT-29.
The mark [3] stands for this setting: HT-29, 24 hours (Table 7), read-out: IC50 for cell growth inhibition, Colon HT-29.
[4] abbreviates: HT-29, 24 h (Table 5), in combinations the IC50 of ASA with fixed concentrations of SNAP and/or ADT-OH, read-out: IC50 at 24 hours for HT-29 cell growth inhibition.
Where [5] appears, read: HT-29 cells, 24 h, read-out: IC50, 24 h.
Where [6] appears, read: HT-29 colon cancer cells, 24 hours (Table 3), read-out: IC50 at 24 hours for cell growth inhibition.

Values joined by “and” are separate entries in the source; they are usually repeats but may differ in a detail not shown here. Identical values can stand only once. Like-named read-outs stand apart in the source and are kept apart here. Some results are limits rather than exact numbers.

As to `O=C(CCC(=O)Oc1ccccc1C(=O)Oc1ccc(-c2cc(=S)ss2)cc1)OCCCCO[N+](=O)[O-]` [NOSH-2, 4-(nitrooxy)butyl (2-((4-(3-thioxo-3H-1,2-dithiol-5-yl)phenoxy)carbonyl)phenyl) succinate], the half-inhibitory concentration (IC50) – broadly, the concentration that gives 50% inhibition – in assay [1] (setting [2]) turned out to be 0.08 ± 0.005 µM.

Turning to `O=C(CCCC[C@@H]1CCSS1)Oc1ccccc1C(=O)OCCCCO[N+](=O)[O-]` [NOSH-4, (R)-4-(nitrooxy)butyl 2-((5-(1,2-dithiolan-3-yl)pentanoyl)oxy)benzoate], the 50% inhibitory concentration (IC50) in assay [1] (setting [2]) was determined as 0.3 ± 0.035 µM.

As for `COc1ccc2cc([C@H](C)C(=O)O)ccc2c1` [naproxen, reference compound], the IC50 in assay [1] (setting [3]) worked out at 2780 µM. In addition, the “COX 1-% Inhibition” value at ovine COX-1 (3 mM (Table 8)) was 80.1%. The inhibition (in general, the change of the read-out against control, counted positive when it falls) at 3000 µM on ovine COX-1 (read-out: COX 1-% Inhibition, 3 mM (Table 8)) was 84.7%. For the same compound, on ovine COX-1 (read-out: COX 1-% Inhibition, 6 mM (Table 8)), the inhibition at 6000 µM is 91.9%.

As to `CC1=C(CC(=O)O)c2cc(F)ccc2/C1=C\c1ccc([S+](C)[O-])cc1` (centres unmarked) [sulindac, reference compound], the IC50 in assay [1] (setting [3]) was 800 µM. Also, the inhibition at 800 µM against ovine COX-1 (800 μM (Table 8)) worked out at 84%. The “COX 1-% Inhibition” value at ovine COX-1 (800 μM (Table 8), 800 µM) is 81.0%. The inhibition at 1600 µM on ovine COX-1 (1600 μM (Table 8)) was found to be 89.1%.

As for `O=C(CCCO[N+](=O)[O-])Oc1ccccc1C(=O)Oc1ccc(-c2cc(=S)ss2)cc1` [NOSH-1, 4-(3-thioxo-3H-1,2-dithiol-5-yl)phenyl 2-((4-(nitrooxy)butanoyl)oxy)benzoate], the “potency of intact NOSH-1 over the combination ASA plus SNAP and ADT-OH” value in assay [1] (HT-29, 24 h) is given as “approximately 9000 fold”. Also, in assay [1] (HT-29 cells, 24 h), the “Potency enhancement (ratio of IC50 values ASA/NOSH-1), 24 h” value is on record as >100,000 fold. For the same compound, the IC50 was found to be 0.048 ± 0.003 µM in assay [1] (setting [2]), 0.05 ± 0.005 µM in assay [1] (setting [4]), 0.0455 ± 0.0025 µM in assay [1] (setting [5]) and 0.05 ± 0.003 µM in assay [1] (setting [6]). Also, the inhibition at 0.025 µM against ovine COX-1 (25 nM (Table 6)) was 8.3 ± 1%. In addition, the inhibition at 0.05 µM was 45.2 ± 2% at ovine COX-1 (50 nM (Table 6)) and 52.6% on ovine COX-1 (50 nM (Table 8)). In addition, the “COX 1-% Inhibition” value at ovine COX-1 (50 nM (Table 8), listed as NOSH-ASA, 0.05 µM) was found to be 47.6%. The inhibition at 0.1 µM on ovine COX-1 (100 nM (Table 6)) was 69.4 ± 2.2%; against ovine COX-1 (100 nM (Table 8)) it was 67.9%. The “preference between COX-1 and COX-2 enzyme inhibition” value at ovine COX-1 is on record as “preferentially inhibits COX-1”.

In the case of `CC(=O)Oc1ccccc1C(=O)O` [ASA, aspirin, reference compound], the IC50 in assay [1] (setting [4]) was > 1000 µM; in assay [1] (setting [5]) it was > 5000 µM; in assay [1] (setting [6]), > 5000 µM. Moreover, at ovine COX-1 (1 mM (Table 6)), the “COX-1, % Inhibition” value is 53.2±1.8%. For the same compound, the “COX 1-% Inhibition” value on ovine COX-1 (1 mM, 15 min at 4° C. (Table 8)) is 84.9% and 85.9%; on ovine COX-1 (3 mM (Table 8)), 86.5%.

As for `CC1=C(CC(=O)Oc2ccc(OC(=O)CCCO[N+](=O)[O-])c(C(=O)Oc3ccc(-c4cc(=S)ss4)cc3)c2)c2cc(F)ccc2/C1=C/c1ccc([S+](C)[O-])cc1` (centres unmarked) [NOSH-8, (E)-4-(3-thioxo-3H-1,2-dithiol-5-yl)phenyl 5-(2-(5-fluoro-2-methyl-1-(4-(methylsulfinyl)benzylidene)-1H-inden-3-yl)acetoxy)-2-((4-(nitrooxy)butanoyl)oxy)benzoate], the concentration for half-maximal inhibition (IC50) in assay [1] (setting [3]) came out at 0.089 µM. For the same compound, in assay [1], the “Ratio NSAID/NOSH-NSAID, HT-29” value was 8,988. Further, the inhibition at 0.089 µM on ovine COX-1 (89 nM (Table 8)) came to 43.4%. Moreover, on ovine COX-1 (89 nM (Table 8), listed as NOSH-SULINDAC, 0.089 µM), the “COX 1-% Inhibition” value was 45.0%. In addition, the “preference between COX-1 and COX-2 enzyme inhibition” value on ovine COX-1 was “preferentially inhibited COX-1”.

`CC(C(=O)Oc1ccc(-c2cc(=S)ss2)cc1)c1ccc2cc(OC(=O)CCCO[N+](=O)[O-])ccc2c1` (centres unmarked) [NOSH-7, 6-(1-oxo-1-(4-(3-thioxo-3H-1,2-dithiol-5-yl)phenoxy)propan-2-yl)naphthalen-2-yl 4-(nitrooxy)butanoate]: the half-maximal inhibitory concentration (IC50) in assay [1] (setting [3]) came out at 0.08 µM. Further, the “Ratio NSAID/NOSH-NSAID, HT-29” value in assay [1] was 34,687. Moreover, at 0.08 µM the inhibition on ovine COX-1 (80 nM (Table 8)) was 42.5%. The “COX 1-% Inhibition” value at ovine COX-1 (80 nM (Table 8), listed as NOSH-NAPROXEN, 0.08 µM) stood at 44.4%. Testing at 0.16 µM on ovine COX-1 (160 nM (Table 8)) gave an inhibition of 52.3%. Further, the “preference between COX-1 and COX-2 enzyme inhibition” value on ovine COX-1 is recorded as “preferentially inhibited COX-1”.

With `NC(=S)c1ccc(OC(=O)c2ccccc2OC(=O)CCCO[N+](=O)[O-])cc1` [NOSH-3, 4-carbamothioylphenyl 2-((4-(nitrooxy)butanoyl)-oxy)benzoate], in assay [1] (setting [2]), the IC50 was determined as 7.5 ± 0.355 µM.
